Columns and labels:
[1] = test system: nerve cells prepared from lymnaea; test: Extracellular recording before and after Carbachol administration; normal distribution of standard deviations (mean value, half-width); assay type: cell-based; conditions: 50-μM Carbachol
Description: The normal distribution approximation unit 103 classifies a plurality of standard deviations obtained in the group SD calculation unit 102 into a plurality of classes set at predetermined widths. The classes are plotted on the X axis and the number of standard deviations classified into each class is plotted on the Y axis, to obtain a graph. The graph obtained is approximated to a normal distribution. Methods for approximating the graph to a normal distribution include, for example, various curve fitting analyses, such as exponential decrease, exponential increase, Gaussian, Lorentzian, Sigma, Multipeak and non-linear methods. The mean value/half-width calculation unit 106 calculates the mean value and half-width (the half-peak height width) of the normal distribution obtained.
The apparatus of the present embodiment thus configured was used to measure how the chemical substance Carbachol acts on nerve cells prepared from lymnaea. More specifically, the normal distribution approximation unit 103 produced a frequency distribution of the standard deviations on the basis of signals that were detected by the measurement unit 101 before and after Carbachol was administered to lymnaea nerve cells at 50-μM concentration. […]

[2] = test system: nerve cells prepared from lymnaea; test: Extracellular recording of nerve cell electrical signals at a series of Carbachol concentrations; mean value of standard deviations; assay type: cell-based; conditions: concentrations 0-100, SD sampled every 100 ms from 10-second data, FIG. 10
Description: FIG. 9 is a block diagram schematically illustrating a configuration of the apparatus for measuring the activity signals of biological samples according to Embodiment 3. The apparatus employs the apparatus of Embodiment 1 as a measurement unit (a signal source) 101, and has a function for processing electrical signals detected by the measurement unit 101. As shown in FIG. 9(A), the apparatus is provided with a group SD (standard deviation) calculation unit 102, a mean value calculation unit 105, an activation evaluation unit 120 and a data display unit 110. According to the group SD calculation unit 102, the standard deviation of one group consisting of a predetermined number of samples is calculated on the basis of time-series data detected by the measurement unit 101. […] According to the mean value calculation unit 105, the mean value of the obtained plurality of standard deviations is calculated. […] Therefore, according to the activation calculation unit 120, activation can be calculated based on the input information and can be classified by comparison with pre-stored information. […] According to the apparatus, noise can be removed from digital signals (predetermined time-series data) captured at a fixed sampling rate, and then significant signals showing, for example, the opening and closing of ion channels can be extracted, measured and classified. […]

C[N+](C)(C)CCOC(N)=O [Carbachol]
effect on ion channels of the nerve cells ([1]; lymnaea nerve cells): activates the ion channels | mean value of the normal distribution of standard deviations after administration ([1]; SD every 5 ms from 10-second signals, before administration 0.478, FIG. 12): 0.703 | Carbachol concentration at which the mean value of the standard deviations reaches its peak [2]: 10 µM
